From ChEMBL document CHEMBL1128126, “Inhibitors of human leukocyte elastase. 2.1 synthesis and sar of benzisothiazolinylmethyl aryl ethers” (Bioorg Med Chem Lett, 1995)

What was measured:
Neutrophil elastase = target: T1, Neutrophil elastase (Homo sapiens, UniProt P08246); experiment: Binding affinity for human leukocyte elastase (HLE); Kreact/Kinact
T1 sequence (P08246 whole entry): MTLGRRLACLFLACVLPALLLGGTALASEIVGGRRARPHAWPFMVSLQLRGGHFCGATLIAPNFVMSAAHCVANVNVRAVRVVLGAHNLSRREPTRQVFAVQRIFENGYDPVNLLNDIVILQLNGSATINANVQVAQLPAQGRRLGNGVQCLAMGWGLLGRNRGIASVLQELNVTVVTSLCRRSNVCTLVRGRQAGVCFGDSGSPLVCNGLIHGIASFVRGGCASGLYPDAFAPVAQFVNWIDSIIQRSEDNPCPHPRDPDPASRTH

[1] = target: T2, Neutrophil elastase (Homo sapiens) (UniProt P08246)
T2 sequence (whole entry): T1 sequence (P08246 whole entry)
Description: Inhibition of human leukocyte elastase (HLE)

Structure (SMILES)	Ki (Neutrophil elastase) [nM]	K inact [1] [M⁻¹ s⁻¹]
CC(C)c1cccc2c1C(=O)N(COc1c(Cl)cccc1Cl)S2(=O)=O	> 100	–
CC(C)c1cccc2c1C(=O)N(COc1cccc(C(=O)OCCN3CCOCC3)c1)S2(=O)=O	> 1000	–
CC(C)c1cccc2c1C(=O)N(COc1cccc(C(=O)NCCN3CCOCC3)c1)S2(=O)=O	> 100	–
CO[C@H]1C(=O)N2C(C(=O)N3CCC[C@H]3C(=O)O)=C(COC(C)=O)CS(=O)(=O)[C@H]12	2.2	3700
